Assay results as given in patent US20140335050A1, “METHODS, COMPOSITIONS, AND KITS FOR THE TREATMENT OF CANCER” (The General Hospital Corporation, priority 2011, published 2014).

How the values were obtained:
Type in all cases: cell-based, human
[1] = test system: MU89 melanoma cells; assay: Tumor cell/T cell co-culture IL-2 ELISA (Melan-A/MART-1 specific TCR Jurkat line J-TCR-M1 as responder); settings: for Fold increase (IL-2 relative to untreated controls), hits from pilot screen: about 10 μM, 72 hours treatment, then 24 hours co-culture; for Outcome in the primary co-culture IL-2 screen (hit or not): ICCB Known Bioactives Library, 10 μM
Text: The assay relies on the use of an antigen-specific responder T cell line. […] The chosen TCR reacts specifically to a Melan-A/MART-1 decapeptide (26[…]35) presented by HLA-A2, with appropriate triggering of T cell activation. We then used a lentiviral vector system for transduction of this specific TCR into the J.RT3-T3.5 T cell line, a Jurkat cell derivative which fails to express endogenous surface TCR through a mutation in its beta chain.
We evaluated several candidate melanoma cell lines for the ability to stimulate the J-TCR-M1 cell line. Levels of Melan-A/MART-1 (determined by intracellular staining and flow cytometry) and corresponding levels of induced IL-2 (determined by coculture with J-TCR-M1 and IL-2 ELISA) were tested for different melanoma cell lines.
The 480 compounds were tested in six parallel 96 well plates. The first two columns (16 wells) of each plate were used for standards (8 wells), untreated controls (4 wells), and positive controls (4 wells). The other ten columns (80 wells) were used for testing compounds in separate wells. A100 μl aliquot containing 5×10^4 MU89 cells was added to wells that contained 0.1 μl of each test drug diluted in 50 μl of RPMI media. The plates were incubated with drug for 72 hours at 37° C. in a humidified incubator with 5% CO2. After 72 hours, each well received 2.5×10^4J-TCR-M1 cells in 50 μl medium, and then incubated a further 24 hours. At the conclusion of the 24 hour co-culture period, each plate was centrifuged to pellet the cells and 100 μl supernatant fluid was collected from each well and plated in a parallel 96 well flat bottom well for IL-2 ELISA assay.
Melanoma cells were treated with hits from the primary screen for three days prior to counting and plating for the coculture assay (cells were washed and resuspended in fresh medium that no longer contained the treatment agents during the co-culture). A100 μl volume of 5×10^5 cells/ml tumor cells were mixed with 50 μl of […] T cells in a 96-well V-bottom plate and incubated overnight (16-24 hours). Plates were centrifuged to pellet the cells and 100 μl of supernatant fluid was removed from each well for cytokine assay. To assess antigen-specific T cell responses, a final concentration of 3.33 μg/ml Melan-A/MART-1 peptide (26[…]35 (A27L from wild type)) was added to the co-culture.
The protocol for evaluation of the cytokine IL-2 was performed using a the BD OptEAI kit, human IL-2 ELISA set from BD Biosciences (San Diego, Calif.) following the manufacturer's recommendations. The absorbance 450 nm was read in a BioRad 3550 plate reader. A standard curve using known concentrations of IL-2 (from 500 to 8 pg/ml) was included in each ELISA plate. IL-2 levels for experimental samples (pg/ml) were calculated from the standard curve.
100 μl of 5×10^5 tumor cells/ml were mixed with 50 μl of T cells (at 5×10^5 cells/ml) in a 96-well V-bottom plate and incubated overnight (16-24 hours). Plates were centrifuged to pellet the cells and 120 μl of supernatant fluid was removed from each well for cytokine assay. To assess antigen-specific T cell responses, 3.33 μg/ml Melan-A/MART-1 peptide was added to the co-culture.
The protocols for evaluation of either IL-2 or IFN-gamma were similar, following the manufacturer's recommendations. A standard curve using known concentrations of each cytokine was included in each ELISA experiment. ELISA plates were coated with capture antibody and then washed with 1×PBS 0.5% Tween-20. Wells were blocked with 1×PBS 1% FBS for 1 hour and rewashed.

[2] = test system: MU89 melanoma cell line; assay: Antibody staining and flow cytometry (intracellular Melan-A/MART-1, gp100, TRP-2; surface MHC Class I/II); settings: MU89 cells
Experimental: (§1) Cells were fixed with 1% formaldehyde, permeabilized with 0.1% saponin, stained with monoclonal antibodies to melanocyte antigens. Antibodies were obtained with specificity for: MART-1 from Vector Labs (Burlingame, Calif.); gp100 HMB45 from DakoCytomation (Carpinteria, Calif.) and then visualized with goat anti-mouse FITC-conjugated secondary antibody from Invitrogen (Fredrick, Md.). The level of EGFP was determined by flow cytometry of unfixed cells that were washed and resuspended in 1×PBS.
(§2) Cells were plated at a density of 1×10^5 in 1 ml of medium in a 24-well plate and cultured for varying times as indicated in results. […] After incubation, cells were collected by trypsinization and then evaluated by flow cytometry.
(§3) Intracellular staining and flow cytometric analyses of cytoplasmic Melan-A/MART-1, and gp100 expression were performed as described previously. Cells were fixed with 1% formaldehyde, permeabilized with 0.1% saponin, stained with monoclonal antibodies to melanocyte antigens. Antibodies were obtained with specificity for: Melan-A/MART-1 from Vector Labs (Burlingame, Calif.); gp100/HMB45 from DakoCytomation (Carpinteria, Calif.) and then visualized with goat anti-mouse FITC-conjugated secondary antibody from Invitrogen (Frederick, Md.). The level of EGFP was determined by flow cytometry of unfixed cells washed and resuspended in 1×PBS. Surface staining of MHC Class I was carried out using the antibody W6/32 on cells harvested with Cell Stripper from MediaTech Inc. (Manassas, Va.) and carried out on ice.
(§4) Cell were seeded at 1×10^6 cells in a T25 flask with 10 ml of media for the 4 day IFN-beta pre-treatments. Cells were then harvested and plated in 24 well plate at 1×10^5 cells per well in 1 ml of media for 3 day treatments.
(§5) For surface staining of HLA Class I and II antigens, cells were harvested using CellStripper™ from Mediatech (Manassas, Va.). All staining steps were performed on ice. Following a first incubation with antibody to Class I (W6/32) or Class II (L243) for 30 minutes. Stained cells were washed twice with cold PBS and then stained with a goat anti-mouse FITC secondary antibody to allow for quantitative analysis by flow cytometry. For evaluation of cytoplasmic antigens, including Melan-A/MART-1 and gp100, cells were first fixed in paraformaldehyde and permeabilized with saponin as previously described. Staining for cytoplasmic antigens was carried out at room temperature (22° C.).

[3] = test system: U-118 MG glioma cell line; assay: Antibody staining and flow cytometry (intracellular gp100; surface MHC Class I/II); settings: U118 cells; Table 20; single agent or simultaneous combination
Experimental: as §1, §2, §3, §4, §5

[4] = test system: HeLa cervical carcinoma cells; assay: Surface antibody staining and flow cytometry (MHC Class I/II); settings: HeLa cells
Experimental: as §3, §4, §5

[5] = test system: MCF-7 breast cancer cells; assay: as above; settings: MCF-7 cells; Table 20; single agent or simultaneous combination
Experimental: as §3, §4, §5

[6] = test system: U2-OS osteosarcoma cells; assay: as above; settings: U2-OS cells; Table 20; single agent or simultaneous combination
Experimental: as §3, §4, §5

[7] = Table 20, single agent or simultaneous combination
[8] = Table 21, no pre-treatment, treatment as labelled
[9] = Table 21, pre-treatment PU-H71 (3 days), then treatment as labelled
[10] = Table 21, substance given as pre-treatment (3 days) only, no subsequent treatment

COc1c(C=O)c(O)cc2c1C(=O)c1ccccc1C2=O [Damnacanthal]
Fold increase (IL-2 relative to untreated controls), hits from pilot screen [1]: 2.1 fold

O=C1CN(/N=C/c2ccc(-c3ccc([N+](=O)[O-])cc3)o2)C(O)=N1 [Dantrolene]
Fold increase (IL-2 relative to untreated controls), hits from pilot screen [1]: 2.4 fold

Fc1ccc(C(c2ccc(F)cc2)N2CCN(C/C=C/c3ccccc3)CC2)cc1 [Flunarizine]
Fold increase (IL-2 relative to untreated controls), hits from pilot screen [1]: 11.9 fold

COc1ccc(Cl)cc1C(=O)NCCc1ccc(S(=O)(=O)NC(=O)NC2CCCCC2)cc1 [Glyburide]
Fold increase (IL-2 relative to untreated controls), hits from pilot screen [1]: 2.6 fold

CCCCCCCCCCCCCCCCCCc1ccc(C(=O)C=CC(=O)O)cc1 [OBAA, 3-(4-octadecyl)benzoylacrylic acid]
Fold increase (IL-2 relative to untreated controls), hits from pilot screen [1]: 5.9 fold

COc1cccc(-c2cc(=O)c3ccccc3o2)c1N [PD98059]
Outcome in the primary co-culture IL-2 screen (hit or not) [1]: failed to be identified

N#CC(=C(/N)Sc1ccccc1N)/C(C#N)=C(\N)Sc1ccccc1N [U0126]
Outcome in the primary co-culture IL-2 screen (hit or not) [1]: failed to be identified

CC[C@@]1(O)C(=O)OCc2c1cc1n(c2=O)Cc2cc3ccccc3nc2-1 [camptothecin]
Outcome in the primary co-culture IL-2 screen (hit or not) [1]: failed to be identified

COc1cccc2c1C(=O)c1c(O)c3c(c(O)c1C2=O)C[C@@](O)(C(C)=O)C[C@@H]3O[C@H]1C[C@H](N)[C@H](O)[C@H](C)O1 [daunorubicin]
Outcome in the primary co-culture IL-2 screen (hit or not) [1]: interferes with the direct co-culture assay

COc1cccc2c1C(=O)c1c(O)c3c(c(O)c1C2=O)C[C@@](O)(C(=O)CO)C[C@@H]3O[C@H]1C[C@H](N)[C@H](O)[C@H](C)O1 [doxorubicin]
Outcome in the primary co-culture IL-2 screen (hit or not) [1]: failed to be identified

COc1cc([C@@H]2c3cc4c(cc3[C@@H](O[C@@H]3O[C@@H]5CO[C@@H](C)O[C@H]5[C@H](O)[C@H]3O)[C@H]3COC(=O)[C@H]23)OCO4)cc(OC)c1O [etoposide]
Outcome in the primary co-culture IL-2 screen (hit or not) [1]: failed to be identified

IFN-G
L243 (MHC Class II surface staining) [2, 7]: 64.3
W6/32 (MHC Class I surface staining) [2, 7]: 86.7
L243 (MHC Class II surface staining) [2, 8]: 81
L243 (MHC Class II surface staining) [2, 9]: 90
L243 (MHC Class II surface staining) [2, 10]: 64
L243 (MHC Class II surface staining) [3]: 53.6
W6/32 (MHC Class I surface staining) [3]: 232.8
L243 (MHC Class II surface staining) [4, 7]: 86.0
W6/32 (MHC Class I surface staining) [4, 7]: 464.8
L243 (MHC Class II surface staining) [4, 8]: 97
L243 (MHC Class II surface staining) [4, 9]: 33
L243 (MHC Class II surface staining) [4, 10]: 76
L243 (MHC Class II surface staining) [5]: 59.1
W6/32 (MHC Class I surface staining) [5]: 478.5
L243 (MHC Class II surface staining) [6]: 142.8
W6/32 (MHC Class I surface staining) [6]: 397.1
